Experimental data from patent US7022694B2, “Indoles and indolines having 5-HT activity” (Pharmacia & UpJohn Company, priority 2001, dated 2006).

Row | SMILES | melting point [°C]
1 | CN1CCc2ccc3cc[nH]c3c2CC1 | 150 to 153
2 | c1cnc2c(OCCn3ccc4ccc5c(c43)CCNCC5)cccc2c1 [Example 6, 1-[2-(8-Quinolinyloxy)ethyl]-1,6,7,8,9,10-hexahydroazepino[4,5-g]indole] | 129 to 132
